Earlier results in patent US20260027014A1, “DEVICES AND METHODS RELATED TO COLORIMETRIC DETECTION FOR DENTAL USES” (CaviSense Inc., priority 2022, published 2026).
Like-named read-outs stand apart in the source and are kept apart here.

SMILES: OC[C@H]1O[C@@](CO)(O[C@H]2O[C@H](CO)[C@@H](O)[C@H](O)[C@H]2O)[C@@H](O)[C@@H]1O [sucrose]
- solubility (in methanol): 1 g/100 ml
- solubility (in water): 210 g/100 mL
